Laboratory results: patent publication US20020111274A1, “1-alkyl-3-[1-(substituted phenyl) benzotriazol-6-yl] uracils” (BASF Aktiengesellschaft, priority 2000, published 2002)

Assays:
Set-up in all cases: scale not given here
ABUTH Velvetleaf = assay: Postemergence herbicidal evaluation, ABUTH; assay type: in vivo, Abutilon theophrasti, Medic.; settings: postemergence spray, rated about two-three weeks after treatment
Procedure, shortened: (§1)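 Seedlings grown about two weeks were sprayed with compound in 80/20 acetone/water containing 1.0% methylated seed oil, at the equivalent of about 0.006 to 0.400 kg/ha, through a nozzle at 40 psi. Plants were kept in the greenhouse and rated visually about two to three weeks after treatment.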

[1] = system: CHEAL Lambsquarters, Common; assay: Postemergence herbicidal evaluation, CHEAL; assay type: in vivo, Chenopodium album, L.; settings: postemergence spray, rated about two-three weeks after treatment
Procedure, shortened: as §1

ECHOG Barnyardgrass = assay: Postemergence herbicidal evaluation, ECHOG; assay type: in vivo, Echinochloa crus-galli, (L.) Beau; settings: postemergence spray, rated about two-three weeks after treatment
Procedure, shortened: as §1

[2] = system: IPOHE Morningglory, Ivyleaf; assay: Postemergence herbicidal evaluation, IPOHE; assay type: in vivo, Ipomoea hederacea, (L.) Jacq.; settings: postemergence spray, rated about two-three weeks after treatment
Procedure, shortened: as §1

SETVI Foxtail, Green = assay: Preemergence herbicidal evaluation, SETVI; assay type: in vivo, Setaria viridis, (L.) Beau; settings: preemergence
Procedure, shortened: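 Preemergence soil spray: aqueous acetone, ~0.013–0.800 kg/ha, applied right after sowing (seed/potting-soil mix over ~1 in soil). Greenhouse, routine watering. Scored 4–5 wk post-treatment on a rating scale.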

For `Cc1ccc(O)c(-n2nnc3cc(F)c(-n4c(=O)cc(C(F)(F)F)n(C)c4=O)cc32)c1` [Example 31, 3-[5-Fluoro-1-(2-Hydroxy-5-Methylphenyl)-1H-1,2,3-Benzotriazol-6-yl]-1-Methyl-6-(Trifluoromethyl)-2,4(1H,3H)-(Pyrimidinedione)], the “Postemergence herbicidal rating ABUTH” value (ABUTH Velvetleaf; 0.008 kg/ha) was 0.0, the “Postemergence herbicidal rating ABUTH” value (ABUTH Velvetleaf; 0.016 kg/ha) was 0.0 and the “Postemergence herbicidal rating ABUTH” value (ABUTH Velvetleaf; 0.032 kg/ha) was 2.0. The “Postemergence herbicidal rating ABUTH” value (ABUTH Velvetleaf; 0.062 kg/ha) was 4.0, the “Postemergence herbicidal rating CHEAL” value ([1]; 0.008 kg/ha) was 0.0 and the “Postemergence herbicidal rating CHEAL” value ([1]; 0.016 kg/ha) was 0.0. For the same compound, the “Postemergence herbicidal rating CHEAL” value ([1]; 0.032 kg/ha) was 0.0, the “Postemergence herbicidal rating CHEAL” value ([1]; 0.062 kg/ha) was 0.0 and the “Postemergence herbicidal rating ECHCG” value (ECHOG Barnyardgrass; 0.008 kg/ha) was 0.0. For the same compound, the “Postemergence herbicidal rating ECHCG” value (ECHOG Barnyardgrass; 0.016 kg/ha) was 0.0, the “Postemergence herbicidal rating ECHCG” value (ECHOG Barnyardgrass; 0.032 kg/ha) was 0.0 and the “Postemergence herbicidal rating ECHCG” value (ECHOG Barnyardgrass; 0.062 kg/ha) was 3.0. The “Postemergence herbicidal rating IPOHE” value ([2]; 0.008 kg/ha) was 1.0, the “Postemergence herbicidal rating IPOHE” value ([2]; 0.016 kg/ha) was 2.0 and the “Postemergence herbicidal rating IPOHE” value ([2]; 0.032 kg/ha) was 4.0. The “Postemergence herbicidal rating IPOHE” value ([2]; 0.062 kg/ha) was 4.0, the SETVI herbicidal rating (SETVI Foxtail, Green; rate 0.008 kg/ha) was 0.0 and the SETVI herbicidal rating (SETVI Foxtail, Green; rate 0.016 kg/ha) was 0.0. The SETVI herbicidal rating (SETVI Foxtail, Green; rate 0.032 kg/ha) was 0.0, the SETVI herbicidal rating (SETVI Foxtail, Green; rate 0.062 kg/ha) was 0.0 and the SETVI herbicidal rating (SETVI Foxtail, Green; rate 0.125 kg/ha) was 0.0.
